Laboratory results: US7723364B2, “N-[2-(2-pyridinyl) ethyl]benzamide compounds and their use as fungicides” (Bayer Cropscience SA, priority 2003, dated 2010)

Assays:
Alternaria brassicae = test: In vivo test on Alternaria brassicae (leaf spot of crucifers) on radish plants; conditions: Alternaria brassicae; dose of 330 ppm; radish plants sprayed 24 hours before contamination; grading 6 to 7 days after contamination vs control plants; read-out: good (at least 50%) or total protection
Method: In Vivo Test on Alternaria brassicae (Leaf Spot of Crucifers)
(§1) The active ingredient tested is prepared by potter homogenisation in a concentrated suspension type formulation at 100 g/l. This suspension is then diluted with water to obtain the desired active material concentration.
Radish plants (Pernot variety) in starter cups, sown on a 50/50 peat soil-pozzolana substrate and grown at 18-20° C., are treated at the cotyledon stage by spraying with the aqueous suspension described above.
(§2) Plants, used as controls, are treated with an aqueous solution not containing the active material.
After 24 hours, the plants are contaminated by spraying them with an aqueous suspension of Alternaria brassicae spores (40,000 spores per cm^3). The spores are collected from a 12 to 13 days-old culture.
The contaminated radish plants are incubated for 6-7 days at about 18° C., under a humid atmosphere.
Grading is carried out 6 to 7 days after the contamination, in comparison with the control plants.

[1] = tested on: Erysiphe graminis f. sp. tritici; test: In vivo test on Erysiphe graminis f. sp. tritici (powdery mildew of wheat); conditions: Blumeria graminis; dose of 330 ppm; wheat plants sprayed 24 hours before contamination; grading 7 to 14 days after contamination vs control plants; read-out: good (at least 50%) or total protection
Method: In Vivo Test on Erysiphe graminis f. sp. tritici (Powdery Mildew of Wheat)
as §1
Wheat plants (Audace variety) in starter cups, sown on 50/50 peat soil-pozzolana substrate and grown at 12° C., are treated at the 1-leaf stage (10 cm tall) by spraying with the aqueous suspension described above.
as §2
After 24 hours, the plants are contaminated by dusting them with Erysiphe graminis f. sp. tritici spores, the dusting being carried out using diseased plants.
Grading is carried out 7 to 14 days after the contamination, in comparison with the control plants.
Under these conditions, good (at least 50%) or total protection is observed at a dose of 330 ppm with the following compounds: 1, 3, 4, 5, 6, 8, 9, 10, 11, 12, 13, 18, 38, 50, 43 and 45.

Botrytis cinerea = test: In vivo test on Botrytis cinerea (cucumber grey mould); conditions: Botrytis cinerea; dose of 330 ppm; cucumber plants sprayed 24 hours before contamination; grading 5/7 days after contamination vs control plants; read-out: good (at least 50%) or total protection
Method: In Vivo Test on Botrytis cinerea (Cucumber Grey Mould)
as §1
(§3) Cucumber plants (Marketer variety) in starter cups, sown on a 50/50 peat soil-pozzolana substrate and grown at 18-20° C., are treated at the cotyledon Z11 stage by spraying with the aqueous suspension described above. Plants, used as controls, are treated with an aqueous solution not containing the active material.
After 24 hours, the plants are contaminated by depositing drops of an aqueous suspension of Botrytis cinerea spores (150,000 spores per ml) on upper surface of the leaves. The spores are collected from a 15-day-old culture and are suspended in a nutrient solution composed of:
The contaminated cucumber plants are settled for 5/7 days in a climatic room at 15-11° C. (day/night) and at 80% relative humidity.
Grading is carried out 5/7 days after the contamination, in comparison with the control plants. Under these conditions, good (at least 50%) or total protection is observed at a dose of 330 ppm with the following compounds: 1, 2, 3, 4, 5, 6, 9, 10, 13, 18, 21, 22, 23, 25, 26, 27, 28, 29, 32, 34, 35, 38, 40, 43, 44, 45, 46, 47, 50, 51, 52, 53, 57 and 62.

Pyrenophora teres = test: In vivo test on Pyrenophora teres (barley net blotch); conditions: 288 h, dose of 330 ppm, barley plants sprayed 24 hours before contamination, grading 12 days after contamination vs control plants, read-out: good (at least 50%) or total protection
Method: In Vivo Test on Pyrenophora teres (Barley Net Blotch)
as §1
as §3, with “Barley” for “Cucumber”, “(Express” for “(Marketer”, “12°” for “18-20°”, “1-leaf” for “cotyledon Z11”, “stage (10 cm tall)” for “stage”
After 24 hours, the plants are contaminated by spraying them with an aqueous suspension of Pyrenophora teres spores (12,000 spores per ml). The spores are collected from a 12-day-old culture. The contaminated barley plants are incubated for 24 hours at about 20° C. and at 100% relative humidity, and then for 12 days at 80% relative humidity.

Row | Compound | pest or weed control at 330 ppm (Alternaria brassicae) [%] | pest or weed control at 330 ppm [1] [%] | pest or weed control at 330 ppm (Botrytis cinerea) [%] | pest or weed control at 330 ppm (Pyrenophora teres) [%] | melting point [°C]
1 | O=C(NCCc1ncc(Cl)cc1Cl)c1ccccc1C(F)(F)F [Compound 1, N-[2-(3,5-dichloro-2-pyridinyl)ethyl]-2-(trifluoromethyl)benzamide] | ≥ 50 | ≥ 50 | ≥ 50 | ≥ 50 | 118
2 | Cc1cc(Br)cnc1CCNC(=O)c1ccccc1C(F)(F)F [Compound 18] | ≥ 50 | ≥ 50 | ≥ 50 | ≥ 50 | –
3 | O=C(NCCc1nc(F)c(F)cc1F)c1ccccc1I [Compound 45] | ≥ 50 | ≥ 50 | ≥ 50 | ≥ 50 | –
4 | O=C(NCCc1ncc(Cl)cc1Cl)c1ccccc1I [Compound 5, N-[2-(3,5-dichloro-2-pyridinyl)ethyl]-2-(iodo)benzamide] | ≥ 50 | ≥ 50 | ≥ 50 | ≥ 50 | 133
5 | Cc1c(F)c(F)nc(CCNC(=O)c2ccccc2I)c1F [Compound 43] | ≥ 50 | ≥ 50 | ≥ 50 | ≥ 50 | –
6 | O=C(NCCc1ncc(Cl)cc1Br)c1ccccc1C(F)(F)F [Compound 38] | ≥ 50 | ≥ 50 | ≥ 50 | ≥ 50 | –
7 | O=C(NCCc1nc(F)ccc1Cl)c1ccccc1C(F)(F)F [Compound 13] | ≥ 50 | ≥ 50 | ≥ 50 | ≥ 50 | –
8 | O=C(NCCc1ncc(Cl)cc1F)c1ccccc1C(F)(F)F [Compound 10] | ≥ 50 | ≥ 50 | ≥ 50 | ≥ 50 | –
9 | Cc1ccc(CCNC(=O)c2ccccc2C(F)(F)F)nc1 [Compound 9] | ≥ 50 | ≥ 50 | ≥ 50 | ≥ 50 | –
